# Test results as given in publication PMC3407795 (EJNMMI Research, 2012).
# Where two headings read alike, the source gives them in different places.
# Assays:
# [1] = Biodistribution in healthy mice; assay type: in vivo; details: male, mouse, 10 pmol total peptide, total radioactivity, healthy Swiss albino mice, iv 10 pmol; for tissue uptake at 4 h: 4 h pi
# Description: In the in vivo receptor blockade animal group, excess Tate (50 nmol) was administered intravenously (iv) together with the radioligand. Animals were sacrificed in groups of four at 4- and 24-h time points post injection (pi). […] Tissue distribution data were calculated as percent injected dose per gram (%ID/g) applying a suitable algorithm.
# The in vivo data presented as mean %ID/g ± SD (n ≥ 4) were statistically analyzed with Student’s t test (Prism^TM 2.01, GraphPad Software, San Diego, CA, USA). Analyses were 2-tailed, and a P value < 0.05 was considered statistically significant.
# [2] = Metabolism in blood (in vivo stability); parameters: species or system mouse; details: healthy male Swiss albino mice, blood collected 5 min after iv injection (3 nmol), RP-HPLC radioanalysis
# Description: The animals were kept for 5 min in cages with free access to water. They were sacrificed by cardiac puncture under ether anesthesia, and blood was withdrawn with a syringe and immediately placed in a pre-chilled EDTA-containing polypropylene vial on ice. Blood samples were centrifuged at 2,000 × g at 4 °C for 10 min.
structure (smiles),measurement,setting,value
"C[C@H](NC(=O)CN1CCN(CC(=O)O)CCN(CC(=O)O)CCN(CC(=O)O)CC1)C(=O)NCC(=O)N[C@H]1CSSC[C@@H](C(=O)O)NC(=O)[C@H](CO)NC(=O)[C@H]([C@@H](C)O)NC(=O)[C@H](Cc2ccccc2)NC(=O)[C@H]([C@@H](C)O)NC(=O)[C@H](CCCCN)NC(=O)[C@H](Cc2c[nH]c3ccccc23)NC(=O)[C@H](Cc2ccccc2)NC(=O)[C@H](Cc2ccccc2)NC(=O)[C@H](CC(N)=O)NC(=O)[C@H](CCCCN)NC1=O [[^111In]AT1S, metal not drawn]",tissue uptake at 4 h,"[1]; kidney, read-out: Kidney uptake",10.9 %ID/g
same,tissue uptake at 24 h,"[1]; kidney, 24 h pi",6.6 %ID/g
same,tissue uptake at 4 h,"[1]; pancreas, read-out: Pancreas uptake",< 0.5 %ID/g
same,intact radiopeptide detected in blood,[2],2%
